One test addresses Prothrombin (Homo sapiens, UniProt P00734). The experiment in a line: In vitro inhibitory activity against serine protease thrombin.
A further test concerns the target Coagulation factor X (Homo sapiens, UniProt P00742). The experiment in a line: In vitro inhibitory activity against factor Xa.

This is an account of results in ChEMBL document CHEMBL1136599, “Design, synthesis, and structure-activity relationships of substituted piperazinone-based transition state factor Xa inhibitors” (Bioorg Med Chem Lett, 2003).

What is called IC50 is the concentration needed to halve the response being measured.

Chain of Coagulation factor X (P00742 41-179 limits assumed): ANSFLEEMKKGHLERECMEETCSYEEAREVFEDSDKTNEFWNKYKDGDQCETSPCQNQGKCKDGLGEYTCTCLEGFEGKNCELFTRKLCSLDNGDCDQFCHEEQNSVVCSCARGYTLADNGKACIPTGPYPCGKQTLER
Chain of Coagulation factor X (P00742 235-488 limits assumed): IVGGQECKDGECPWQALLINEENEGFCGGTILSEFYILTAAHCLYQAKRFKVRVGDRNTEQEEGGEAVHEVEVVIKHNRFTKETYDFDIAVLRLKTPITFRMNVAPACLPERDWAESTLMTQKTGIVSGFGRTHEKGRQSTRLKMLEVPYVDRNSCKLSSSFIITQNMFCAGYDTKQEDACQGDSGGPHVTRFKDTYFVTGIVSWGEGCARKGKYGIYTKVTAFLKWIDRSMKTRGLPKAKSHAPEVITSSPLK

In the case of `N=C(N)NCCC[C@H](NC(=O)CN1CC(=O)N[C@H](CCCNC(=N)N)C1=O)C(=O)c1nccs1`, the half-maximal inhibitory concentration (IC50) against Prothrombin came out at 200000 nM; at Coagulation factor X, 21 nM. Regarding `CCOC(=O)C[C@H]1C(=O)N(CC(=O)N[C@@H](CCCN=C(N)N)C(=O)c2nccs2)CCN1S(=O)(=O)Cc1ccccc1`, the figures for the IC50 at Prothrombin and against Coagulation factor X were 4000 nM and 32 nM, respectively. On the same counts, the results for `N=C(N)NCCC[C@H](NC(=O)CN1CCN(S(=O)(=O)Cc2ccccc2)[C@@H](CCCNC(=N)N)C1=O)C(=O)c1nccs1` are 12000 nM and 3 nM. Consider `N=C(N)NCCCC(NC(=O)CNC(=O)[C@@H](Cc1ccccc1)NS(=O)(=O)Cc1ccccc1)C(=O)c1nccs1` (stereo not given in full), for which half-maximal inhibition against Coagulation factor X (IC50) was put at 2 nM. This lies in the single-digit nanomolar range. Take `CS(=O)(=O)N1CCN(CC(=O)N[C@@H](CCCNC(=N)N)C(=O)c2nccs2)C(=O)[C@@H]1Cc1ccccc1`: the IC50 at Prothrombin amounted to 642 nM; on Coagulation factor X, 459 nM. The matching figures for `N=C(N)NCCC[C@H](NC(=O)CN1CCN(S(=O)(=O)Cc2ccccc2)[C@H](CO)C1=O)C(=O)c1nccs1`: 2000 nM and 6 nM. The matching figures for `N=C(N)NCCC[C@H](NC(=O)CN1CCN[C@@H](CCCNC(=N)N)C1=O)C(=O)c1nccs1`: 12000 nM and 20 nM. The matching figures for `N=C(N)NCCC[C@H](NC(=O)CN1CCN[C@@H](Cc2ccccc2)C1=O)C(=O)c1nccs1`: 2000 nM and 888 nM. For `N=C(N)NCCC[C@H](NC(=O)CN1CCN(S(=O)(=O)Cc2ccccc2)[C@@H](CC(=O)O)C1=O)C(=O)c1nccs1`, the IC50 came to 325000 nM on Prothrombin and 370 nM on Coagulation factor X. The matching figures for `N=C(N)NCCC[C@H](NC(=O)CN1C=CN[C@@H](CCCNC(=N)N)C1=O)C(=O)c1nccs1`: 140000 nM and 307 nM. As to `N=C(N)NCCCC(NC(=O)CN1CCN(S(=O)(=O)Cc2ccccc2)CC1=O)C(=O)c1nccs1` (stereo not given), at Coagulation factor X, the IC50 was 4 nM.

Turning to `COC(=O)C[C@@H]1C(=O)N(CC(=O)N[C@@H](CCCNC(=N)N)C(=O)c2nccs2)CCN1S(=O)(=O)Cc1ccccc1`, the IC50 on Prothrombin amounted to 5000 nM; against Coagulation factor X, 8 nM. On the same counts, the results for `COC(=O)C[C@H]1C(=O)N(CC(=O)N[C@@H](CCCNC(=N)N)C(=O)c2nccs2)CCN1S(=O)(=O)Cc1ccccc1` are 1000 nM and 85 nM. On the same counts, the results for `N=C(N)NCCC[C@H](NC(=O)CN1CCN(S(=O)(=O)Cc2ccccc2)[C@H](CC(=O)N2CCCCC2)C1=O)C(=O)c1nccs1` are 8000 nM and 37 nM. The matching figures for `N=C(N)NCCC[C@H](NC(=O)CN1CCN(S(=O)(=O)Cc2ccccc2)[C@H](CCC(=O)O)C1=O)C(=O)c1nccs1`: 5000 nM and 4 nM. On to `N=C(N)NCCC[C@H](NC(=O)CN1CCN[C@H](Cc2ccccc2)C1=O)C(=O)c1nccs1`, for which the IC50 against Prothrombin is 22000 nM. In the case of `N=C(N)NCCC[C@H](NC(=O)CN1CCN(S(=O)(=O)Cc2ccccc2)[C@@H](CC(=O)N2CCCCC2)C1=O)C(=O)c1nccs1`, the results for the IC50 at Prothrombin and against Coagulation factor X were 60000 nM and 154 nM, respectively. The matching figures for `N=C(N)NCCC[C@H](NC(=O)CN1CCN(S(=O)(=O)Cc2ccccc2)[C@@H](Cc2ccccc2)C1=O)C(=O)c1nccs1`: 507 nM and 0.9 nM. The matching figures for `CS(=O)(=O)N1CCN(CC(=O)N[C@@H](CCCN=C(N)N)C(=O)c2nccs2)C(=O)[C@H]1Cc1ccccc1`: 2000 nM and 144 nM. On the same counts, the results for `N=C(N)NCCC[C@H](NC(=O)CN1CCN(S(=O)(=O)Cc2ccccc2)[C@H](CCCNC(=N)N)C1=O)C(=O)c1nccs1` are 3000 nM and 13 nM. Molecule `N=C(N)NCCC[C@@H](NS(=O)(=O)Cc1ccccc1)C(=O)NC(=O)CN[C@H](CCCNC(=N)N)C(=O)c1nccs1` displayed an IC50 against Coagulation factor X of 13 nM. Regarding `N=C(N)NCCC[C@H](NC(=O)CN1CC(=O)N[C@@H](CCCNC(=N)N)C1=O)C(=O)c1nccs1`, the IC50 against Prothrombin amounted to 150000 nM; against Coagulation factor X, 11 nM. On the same counts, the results for `COC(=O)CC[C@@H]1C(=O)N(CC(=O)N[C@@H](CCCNC(=N)N)C(=O)c2nccs2)CCN1S(=O)(=O)Cc1ccccc1` are 2000 nM and 1 nM. The matching figures for `CCOC(=O)C[C@@H]1C(=O)N(CC(=O)N[C@@H](CCCN=C(N)N)C(=O)c2nccs2)CCN1S(=O)(=O)Cc1ccccc1`: 3000 nM and 7 nM.

For `N=C(N)NCCC[C@H](NC(=O)CN1CCN(S(=O)(=O)Cc2ccccc2)[C@H](CC(=O)O)C1=O)C(=O)c1nccs1`, the figures for the IC50 on Prothrombin and against Coagulation factor X were 40000 nM and 31 nM, respectively.

Turning to `N=C(N)NCCC[C@H](NC(=O)CN1CCN(S(=O)(=O)Cc2ccccc2)[C@H](Cc2ccccc2)C1=O)C(=O)c1nccs1`, the values for the IC50 against Prothrombin and on Coagulation factor X were 2000 nM and 59 nM, respectively. On the same counts, the results for `N=C(N)NCCC[C@H](NC(=O)CN1CCN(S(=O)(=O)Cc2ccccc2)[C@H](CCC(=O)N2CCCCC2)C1=O)C(=O)c1nccs1` are 3000 nM and 4 nM.
